In article PMC9572521, “Synthesis, Docking Studies and Pharmacological Evaluation of Serotoninergic Ligands Containing a 5-Norbornene-2-Carboxamide Nucleus” (Molecules, 2022):
“Also recorded” adds a separate entry of the source. Read-outs that look alike come from different tables or passages of the source.

Columns and labels:
[1] = target: T1, 5-HT1A receptor (Rattus norvegicus, UniProt P19327); assay: Functional 5-HT1A receptor [35S]GTPγS assay (agonist mode); format: biochemical; settings: [35S]GTPγS, rat hippocampus homogenate;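 also: male Sprague-Dawley rat hippocampal membranes incubated 90 min at 37 °C, bound label counted by scintillation after filtration, non-specific binding defined with 100 µM unlabeled GTPγS, one-site curve fit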
T1 construct: 15 μg/mL of hippocampus homogenate was incubated in triplicate with 0.8 nM; from tissue; host or cells: rat hippocampus homogenate
T1 sequence (P19327 1-422): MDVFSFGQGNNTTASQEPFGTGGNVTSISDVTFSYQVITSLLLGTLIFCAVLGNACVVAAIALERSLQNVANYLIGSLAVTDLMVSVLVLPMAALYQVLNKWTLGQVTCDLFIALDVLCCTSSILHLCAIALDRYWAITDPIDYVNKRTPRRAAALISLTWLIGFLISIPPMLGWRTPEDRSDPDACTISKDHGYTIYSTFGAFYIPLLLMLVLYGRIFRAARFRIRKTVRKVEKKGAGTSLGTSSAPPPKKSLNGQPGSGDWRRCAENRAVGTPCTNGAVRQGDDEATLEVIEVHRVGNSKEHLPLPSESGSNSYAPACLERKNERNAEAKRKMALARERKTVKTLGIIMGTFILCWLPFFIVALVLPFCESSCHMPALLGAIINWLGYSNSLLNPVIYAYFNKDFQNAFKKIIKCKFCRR

[2] = target: T2, D2 receptor (Rattus norvegicus, UniProt P61169); assay: Functional D2 receptor [35S]GTPγS assay (antagonist mode vs dopamine; basal for agonism); format: biochemical; settings: against 40 µM dopamine, rat striatal homogenate; read-out: D2 receptor antagonistic activity IC50 (95% CI);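 also: [35S]GTPγS binding counted by scintillation after 60 min at 30 °C, nonspecific binding defined with 100 µM unlabeled GTPγS, inhibition curves fitted by one-site nonlinear regression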
T2 construct: 15μg/mL of striatal homogenate was incubated in triplicate; from tissue; host or cells: rat striatum homogenate
T2 sequence (P61169 whole entry): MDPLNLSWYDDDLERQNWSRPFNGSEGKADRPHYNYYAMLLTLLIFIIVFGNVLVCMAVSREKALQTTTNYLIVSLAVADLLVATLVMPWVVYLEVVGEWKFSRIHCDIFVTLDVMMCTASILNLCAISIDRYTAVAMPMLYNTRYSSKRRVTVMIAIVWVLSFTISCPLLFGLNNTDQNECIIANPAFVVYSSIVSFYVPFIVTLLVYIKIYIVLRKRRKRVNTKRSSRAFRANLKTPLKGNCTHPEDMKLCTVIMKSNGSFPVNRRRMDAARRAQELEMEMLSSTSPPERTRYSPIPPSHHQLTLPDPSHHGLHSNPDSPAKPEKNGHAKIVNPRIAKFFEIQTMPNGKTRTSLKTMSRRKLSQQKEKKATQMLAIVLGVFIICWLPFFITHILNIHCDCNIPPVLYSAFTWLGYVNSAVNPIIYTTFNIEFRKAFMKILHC

[3] = target: 5-HT2A receptor (Rattus norvegicus, UniProt P14842); assay: 5-HT2A competition binding assay ([3H]ketanserin, frontal cortex homogenates)
5-HT2A receptor, sequence (P14842 whole entry): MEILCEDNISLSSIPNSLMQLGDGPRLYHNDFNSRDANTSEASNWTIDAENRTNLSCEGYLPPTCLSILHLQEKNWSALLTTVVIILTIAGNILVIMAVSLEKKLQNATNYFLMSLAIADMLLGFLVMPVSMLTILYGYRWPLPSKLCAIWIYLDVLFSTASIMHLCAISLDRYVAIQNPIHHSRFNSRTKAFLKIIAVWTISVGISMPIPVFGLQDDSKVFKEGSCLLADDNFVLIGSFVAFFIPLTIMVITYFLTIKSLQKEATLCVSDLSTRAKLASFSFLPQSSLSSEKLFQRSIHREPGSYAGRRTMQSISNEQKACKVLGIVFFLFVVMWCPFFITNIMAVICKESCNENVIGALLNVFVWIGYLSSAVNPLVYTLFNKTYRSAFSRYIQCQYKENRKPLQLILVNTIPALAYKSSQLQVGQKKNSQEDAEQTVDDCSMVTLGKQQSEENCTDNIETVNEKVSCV

[4] = target: T3, human 5-HT2C receptor (Homo sapiens, UniProt P28335); assay: 5-HT2C competition binding assay ([3H]mesulergine, transfected cell membranes); settings: [3H]mesulergine, human 5-HT2C membranes; read-out: 5-HT2C Ki (95% CI)
T3 sequence (P28335 33-458): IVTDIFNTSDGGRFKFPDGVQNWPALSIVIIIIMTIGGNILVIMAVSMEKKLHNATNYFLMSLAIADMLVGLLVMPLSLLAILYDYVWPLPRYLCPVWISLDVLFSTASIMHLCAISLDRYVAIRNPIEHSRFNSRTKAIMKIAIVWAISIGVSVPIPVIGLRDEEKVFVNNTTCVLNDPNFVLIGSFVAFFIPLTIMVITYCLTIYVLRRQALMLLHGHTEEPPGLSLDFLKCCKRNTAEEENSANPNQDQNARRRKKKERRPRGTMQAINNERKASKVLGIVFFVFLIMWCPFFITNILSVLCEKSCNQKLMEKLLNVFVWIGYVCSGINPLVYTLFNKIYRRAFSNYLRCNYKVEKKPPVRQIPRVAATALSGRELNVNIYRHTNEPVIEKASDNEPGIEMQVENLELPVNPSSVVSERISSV

[5] = system: 5-HT2A receptors (5-HT-induced contractions in the rat ileum); assay: 5-HT-evoked contractions of isolated rat ileum; settings: 5-HT 10^−5 M; compounds 10^−8–10^−5 M
[6] = system: mice; assay: Chimney test (motor coordination); format: in vivo, mouse; settings: 30 mg/kg i.p., 60 min before the test
Procedure: (§1) The experiments were carried out, in the Experimental Medicine Center of Medical University of Lublin, on six-week-old naive male Swiss mice, weighing 24–30 g. The mice were housed in cages, five individuals per cage in an environmentally controlled rooms (ambient temperature 22 ± 1 °C; relative humidity 50–60%; 12 h light/dark cycle, lights on at 8:00). Standard laboratory food(LSM-Agropol-Motycz, Lublin, Poland) and filtered water were available ad libitum. All the experimental procedures were carried out, according to the National Institute of Health Guidelines for the Care and Use of Laboratory Animals and to the European Community Council Directive for the Care and Use of Laboratory Animals of 22 September 2010 (2010/63/EU) and approved by the Local Ethics Committee for Animal Experimentation in Lublin. The investigated compounds (Norbo-4, Norbo-8, Norbo-10, Norbo-14, Norbo-18 and Norbo-20) in all tests were administered intraperitoneally (i.p.), dissolved in dimethyl sulfoxide (DMSO, final concentration of 0.1%) and then diluted by aqueous solution of 0.5% methylcellulose (tylose) and injected 60 min before the tests. […] All compounds were given in a volume of 10 mL/kg to mice. The control animals received an equivalent volume of the solvent at the respective time before the tests. All the experiments were conducted in the light phase between 09.00 a.m. and 14.00 p.m. The experiments were performed by an observer unaware of the treatment administered. The effects of investigated compounds on motor coordination were evaluated in the rota-rod and chimney tests. In the first test, motor impairments were measured, defined as the inability to keep balance on a rotating rod (at constant speed of 18 rpm) for 1 min. In the second test, motor impairments were assessed by mouse inability to climb up the tube backwards (3 cm in inner diameter, 25 cm long) within 60 s. Before the tests, the animals were trained once a day for 3 days. The animals able to stay on the rotating rod or to leave the chimney for 60 s were approved for experiments.

[7] = system: mice; assay: Rota-rod test (motor coordination); format: in vivo, mouse; settings: 30 mg/kg i.p., 60 min before the test
Procedure: as §1

[8] = system: mice; assay: Spontaneous locomotor activity; format: in vivo, mouse
[9] = system: mice; assay: Forced swim test (FST, Porsolt's test); format: in vivo, mouse; settings: 15 mg/kg i.p., 60 min before the test
Procedure: as §1, with “The experiment was carried out according to the method” for “The effects”, “of Porsolt et al.. Mice were individually placed in a glass cylinder (25 cm high; 10 cm in diameter) containing water maintained at 23–25 °C, and were left there for 6 min. The total duration of immobility was recorded during the last 4 min of a 6-min test session. A mouse was regarded as immobile when it remained floating” for “of investigated compounds”, “on” for “on motor coordination were evaluated in”, “the water, making only small movements” for “the rota-rod and chimney tests. In the first test, motor impairments were measured, defined as the inability”, “keep its head above” for “keep balance on a rotating rod (at constant speed of 18 rpm) for 1 min. In”, “the water.” for “the second test, motor impairments were assessed by mouse inability to climb up the tube backwards (3 cm in inner diameter, 25 cm long) within 60 s. Before the tests, the animals were trained once a day for 3 days. The animals able to stay on the rotating rod or to leave the chimney for 60 s were approved for experiments.”

[10] = 30 mg/kg i.p., after 6 min of observation
[11] = 30 mg/kg i.p., after 20 min of observation

O=C(NCCCN1CCN(c2ccc(Cl)c(Cl)c2)CC1)C1CC2C=CC1C2 (stereo not drawn) [Norbo-14, endo-N-(3-(4-(3,4-dichlorophenyl)piperazin-1-yl)propyl)bicyclo[2.2.1]hept-5-ene-2-carboxamide]
5-HT1A Receptor G-Protein Stimulation pEC50 ([1]; ± SEM): no activity | IC50 [2]: 41100 nM | Ki ([3]; read-out: 5-HT2A Ki (95% CI)): 17.9 nM | Ki [4]: 3640 nM | Emax, maximal inhibitory effect on 5-HT-induced contractions in the rat ileum [5]: 22.57% | time in chimney [6]: significant increase of time in chimney; also recorded: disturbed the behavior of mice | time on rota-rod [7]: decreased also time on rota-rod; also recorded: impaired motor coordination | spontaneous locomotor activity ([8]; 15 mg/kg i.p., after 20 min of observation): significant decrease in locomotor activity | spontaneous locomotor activity [8, 10]: significant decrease in locomotor activity | spontaneous locomotor activity [8, 11]: significant decrease in locomotor activity

O=C(NCCCN1CCN(c2ccc(F)cc2)CC1)C1CC2C=CC1C2 (stereo not drawn) [Norbo-18, endo.-N-(3-(4-(4-fluorophenyl)piperazin-1-yl)propyl)bicyclo[2.2.1]hept-5-ene-2-carboxamide]
5-HT1A Receptor G-Protein Stimulation Emax (%) ± SEM [1]: 143 ± 5.1 ^&&& % | EC50 ([1]; read-out: 5-HT1A Receptor G-Protein Stimulation EC50 (95% CI)): 2320 nM | IC50 [2]: 82900 nM | Ki ([3]; ± SEM, read-out: 5-HT2A pKi (converted)): 18.6 nM | Ki [4]: 212 nM | Emax, maximal inhibitory effect on 5-HT-induced contractions in the rat ileum [5]: 25.28% | time in chimney [6]: significant increase of time in chimney; also recorded: disturbed the behavior of mice | time on rota-rod [7]: decreased also time on rota-rod; also recorded: impaired motor coordination | spontaneous locomotor activity [8, 10]: significant decrease in locomotor activity | spontaneous locomotor activity [8, 11]: significant decrease in locomotor activity | immobility time in FST [9]: significant reduction in immobility time; also recorded: significant reduction of immobility time
